In patent US20260109707A1, “HETEROBIFUNCTIONAL COMPOUNDS AND METHODS OF TREATING DISEASE” (Halda Therapeutics OpCo. Inc., priority 2022, published 2026):
Where two headings read alike, the source gives them in different places.

Assays:
[1] = tested on: T-Rex 293 cell line SC3 cells lacking increased expression of androgen receptor protein; experiment: Cellular growth inhibition assay, T-Rex 293 SC3 cells without doxycycline (CellTiter-Glo, 72 hours); type: cell-based; details: T-Rex 293 cell line SC3 cells not exposed to doxycycline (lacking increased androgen receptor expression)
Method in brief: (§1)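 Growth inhibition is measured in an inducible AR-expressing T-Rex 293 clone, SC3, cultured with or without 10 ng/mL doxycycline in hormone-depleted medium. Test compounds are applied for 72 hours. GI50 values derive from CellTiter-Glo 2.0 signal fitted by four-parameter regression.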

T47D cells = experiment: Cellular growth inhibition assay for T47D cells (CellTiter-Glo, 72 hours); type: cell-based, human; details: 72 hours treatment
Method in brief: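 Cells are plated at 3000/well and allowed 24 h before treatment. Test compound in medium containing 0.5% DMSO is then added, with DMSO-only wells as negative control, and plates are incubated 72 h at 37 °C. ATP luminescence (CellTiter-Glo 2.0) is then fitted to four parameters to derive GI50.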

VCaP cells = experiment: Cellular growth inhibition assay for VCaP cells (CellTiter-Glo, 72 hours); type: cell-based, human
Method in brief: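 Luminescent viability signal after 72 h of compound exposure gave GI50 values by four-parameter nonlinear regression. Compounds were added in 0.5% DMSO to cells plated 24 h earlier at 5000/well in DMEM containing 10% FBS.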

[2] = tested on: T-Rex 293 cell line SC3 cells having increased expression of androgen receptor protein due to exposure to doxycycline; experiment: Cellular growth inhibition assay, T-Rex 293 SC3 cells with doxycycline (CellTiter-Glo, 72 hours); type: cell-based; details: T-Rex 293 SC3 cells with increased androgen receptor expression due to doxycycline (10 ng/mL)
Method in brief: as §1

Row | SMILES | GI50 ([1]; 72 h) [nM] | GI50 (T47D cells; Homo sapiens, T47D, 72 h) [nM] | GI50 (VCaP cells; Homo sapiens, VCaP, 72 h) [nM] | GI50 ([2]; 72 h) [nM] | GI50 [1] [nM] | GI50 (T47D cells) [nM] | GI50 (VCaP cells) [nM] | GI50 [2] [nM]
1 | Cc1sc2c(c1C)C(c1ccc(C(C)(C)N3CCC4(CCCN(c5ccc(C(=O)N[C@H]6CC[C@H](Oc7ccc(C#N)c(Cl)c7)CC6)nn5)C4)C3)cc1)=N[C@@H](Cc1ncco1)c1nnc(C)n1-2 (stereo partly drawn) [I-359] | > 3000 | > 3000 | > 3000 | > 3000 | – | – | – | –
2 | Cc1sc2c(c1C)C(c1ccc(CCO[C@H]3CCCN(c4ccc(C(=O)N[C@H]5CC[C@H](Oc6ccc(C#N)c(Cl)c6)CC5)nn4)C3)cc1)=N[C@@H](C)c1nnc(C)n1-2 [I-325] | > 3000 | 1500 to 3000 | 1500 to 3000 | < 500 | – | – | – | –
3 | Cc1sc2c(c1C)C(c1ccc(OC[C@H]3C[C@@]4(CCCN(c5ccc(C(=O)N[C@H]6CC[C@H](Oc7ccc(C#N)c(Cl)c7)CC6)nn5)C4)C3)nc1)=N[C@@H](Cc1ncco1)c1nnc(C)n1-2 [I-263] | > 3000 | 500 to 1500 | < 500 | < 500 | – | – | – | –
4 | Cc1sc2c(c1C)C(c1ccc(CN3CC(=O)N4C[C@@H](c5ccc(C(=O)N[C@H]6CC[C@H](Oc7ccc(C#N)c(Cl)c7)CC6)nn5)C[C@H]4C3=O)cc1)=N[C@@H](Cc1ncco1)c1nnc(C)n1-2 [I-346] | > 3000 | 500 to 1500 | < 500 | < 500 | – | – | – | –
5 | Cc1sc2c(c1C)C(c1ccc(O[C@H]3C[C@]4(CCCN(c5ccc(C(=O)N[C@H]6CC[C@H](Oc7ccc(C#N)c(Cl)c7)CC6)nn5)C4)C3)cc1)=N[C@@H](Cc1ncco1)c1nnc(C)n1-2 [I-93] | < 500 | 500 to 1500 | < 500 | < 500 | – | – | – | –
6 | CCNC(=O)C[C@@H]1N=C(c2ccc(N(C)CCC3CCN(c4ccc(C(=O)N[C@H]5CC[C@H](Oc6ccc(C#N)c(Cl)c6)CC5)nn4)CC3)cc2)c2c(sc(C)c2C)-n2c(C)nnc21 [I-34] | 500 to 1500 | 500 to 1500 | 500 to 1500 | < 500 | – | – | – | –
7 | Cc1sc2c(c1C)C(c1ccc(OC[C@H]3C[C@]4(CCCN(c5ccc(C(=O)N[C@H]6CC[C@H](Oc7ccc(C#N)c(Cl)c7)CC6)nn5)C4)C3)cc1)=N[C@@H](Cc1ncco1)c1nnc(C)n1-2 [I-104] | – | – | – | < 500 | < 500 | < 500 | < 500 | –
8 | Cc1sc2c(c1C)C(c1ccc(N3CCC[C@H](C(=O)N4CCC[C@@H](c5ccc(C(=O)N[C@H]6CC[C@H](Oc7ccc(C#N)c(Cl)c7)CC6)nn5)C4)C3)cc1)=N[C@@H](Cc1ncco1)c1nnc(C)n1-2 [I-302] | < 500 | < 500 | 500 to 1500 | < 500 | – | – | – | –
9 | Cc1sc2c(c1C)C(c1ccc(OC3CC4(CCN(c5ncc(C(=O)N[C@H]6CC[C@H](Oc7ccc(C#N)c(Cl)c7)CC6)cn5)CC4)C3)cc1)=N[C@@H](Cc1ncco1)c1nnc(C)n1-2 [I-84] | < 500 | < 500 | < 500 | < 500 | – | – | – | –
10 | Cc1sc2c(c1C)C(c1ccc([C@H]3C[C@H](C4CC5(CCN(c6ccc(C(=O)N[C@H]7CC[C@H](Oc8ccc(C#N)c(Cl)c8)CC7)nn6)CC5)C4)C3)cc1)=N[C@H](Cc1ncco1)c1nnc(C)n1-2 [I-383] | > 3000 | < 500 | < 500 | < 500 | – | – | – | –
11 | Cc1sc2c(c1C)C(c1ccc(CN3CCC4(CC3)CCN(c3ccc(C(=O)N[C@H]5CC[C@H](Oc6ccc(C#N)c(Cl)c6)CC5)nn3)CC4)cc1)=N[C@@H](Cc1ncco1)c1nnc(C)n1-2 [I-366] | < 500 | < 500 | < 500 | < 500 | – | – | – | –
12 | Cc1sc2c(c1C)C(c1ccc(C(=O)N3CCC(N(C)c4ccc(C(=O)N[C@H]5CC[C@H](Oc6ccc(C#N)c(Cl)c6)CC5)nn4)CC3)cc1)=N[C@H](Cc1ncco1)c1nnc(C)n1-2 [I-307] | 500 to 1500 | 1500 to 3000 | 1500 to 3000 | < 500 | – | – | – | –
13 | Cc1sc2c(c1C)C(c1ccc(C[C@H]3C[C@@]4(CCCN(c5ccc(C(=O)N[C@H]6CC[C@H](Oc7ccc(C#N)c(Cl)c7)CC6)nn5)C4)C3)cc1)=N[C@@H](Cc1ncco1)c1nnc(C)n1-2 [I-118] | > 3000 | 1500 to 3000 | 1500 to 3000 | > 3000 | – | – | – | –
14 | Cc1sc2c(c1C)C(c1ccc(CCCC3CCN(c4ccc(C(=O)N[C@H]5CC[C@H](Oc6ccc(C#N)c(Cl)c6)CC5)nn4)CC3)cc1)=NC(Cc1ncco1)c1nnc(C)n1-2 (stereo partly drawn) [I-75] | < 500 | < 500 | < 500 | < 500 | – | – | – | –
15 | Cc1sc2c(c1C)C(c1ccc(N3CCC4(CC3)CCN(c3ccc(C(=O)N[C@H]5CC[C@H](Oc6ccc(C#N)c(Cl)c6)CC5)nn3)C4)cc1)=N[C@@H](C)c1nnc(C)n1-2 [I-430] | – | – | – | – | < 500 | < 500 | < 500 | < 500
16 | Cc1sc2c(c1C)C(c1ccc(OC3CC4(CCN(c5ccc(C(=O)N[C@H]6CC[C@H](Oc7ccc(C#N)c(Cl)c7)CC6)nn5)CC4)C3)cc1)=N/C(=C/c1ncco1)c1nnc(C)n1-2 [I-135, N-[4-(3-chloro-4-cyano-phenoxy)cyclohexyl]-6-[2-[4-[(9E)-4,5,13-trimethyl-9-(oxazol-2-ylmethylene)-3-thia-1,8,11,12-tetrazatricyclo[8.3.0.02,6]trideca-2(6),4,7,10,12-pentaen-7-yl]phenoxy]-7-azaspiro[3.5]nonan-7-yl]pyridazine-3-carboxamide] | > 3000 | > 3000 | < 500 | < 500 | – | – | – | –
17 | Cc1sc2c(c1C)C(c1ccc([C@H]3C[C@@H]([C@H]4CCCN(c5ccc(C(=O)N[C@H]6CC[C@H](Oc7ccc(C#N)c(Cl)c7)CC6)nn5)C4)C3)cc1)=N[C@@H](Cc1ncco1)c1nnc(C)n1-2 [I-376] | < 500 | < 500 | < 500 | < 500 | – | – | – | –
18 | Cc1sc2c(c1C)C(c1ccc(CCO[C@H]3CCCN(c4ccc(C(=O)N[C@H]5CC[C@H](Oc6ccc(C#N)c(Cl)c6)CC5)nn4)C3)cc1)=N[C@@H](Cc1ncco1)c1nnc(C)n1-2 [I-279] | < 500 | 500 to 1500 | < 500 | < 500 | – | – | – | –
19 | Cc1sc2c(c1C)C(c1ccc(CC3CC4(CCN(c5ccc(C(=O)N[C@H]6CC[C@H](Oc7ccc(C#N)c(Cl)c7)CC6)nn5)CC4)C3)cc1)=N[C@@H](Cc1ncco1)c1nnc(C)n1-2 [I-112] | < 500 | < 500 | < 500 | < 500 | – | – | – | –
20 | Cc1sc2c(c1C)C(c1ccc(O[C@H]3C[C@H](OC4CCN(c5ccc(C(=O)N[C@H]6CC[C@H](Oc7ccc(C#N)c(Cl)c7)CC6)nn5)CC4)C3)cc1)=N[C@@H](Cc1ncco1)c1nnc(C)n1-2 [I-90] | < 500 | < 500 | < 500 | < 500 | – | – | – | –
21 | Cc1sc2c(c1C)C(c1ccc(OC3CN(CC4CCN(c5ccc(C(=O)N[C@H]6CC[C@H](Oc7ccc(C#N)c(Cl)c7)CC6)nn5)CC4)C3)cc1)=N[C@H](Cc1ncco1)c1nnc(C)n1-2 [I-82] | < 500 | < 500 | < 500 | < 500 | – | – | – | –
22 | Cc1sc2c(c1C)C(c1ccc(C(=O)N3CCN(CCc4ccc(C(=O)N[C@H]5CC[C@H](Oc6ccc(C#N)c(Cl)c6)CC5)nn4)CC3)cc1)=N[C@H](Cc1ncco1)c1nnc(C)n1-2 [I-314] | > 3000 | 1500 to 3000 | 500 to 1500 | 500 to 1500 | – | – | – | –
23 | Cc1sc2c(c1C)C(c1ccc(CCC[C@@H]3CCCN(c4ccc(C(=O)N[C@H]5CC[C@H](Oc6ccc(C#N)c(Cl)c6)CC5)nn4)C3)cc1)=N[C@@H](C)c1nnc(C)n1-2 [I-308] | > 3000 | 500 to 1500 | < 500 | < 500 | – | – | – | –
24 | Cc1sc2c(c1C)C(c1ccc(C#CCC3CCN(c4ccc(C(=O)N[C@H]5CC[C@H](Oc6ccc(C#N)c(Cl)c6)CC5)nn4)CC3)cc1)=N[C@@H](Cc1ncco1)c1nnc(C)n1-2 [I-136, N-[4-(3-chloro-4-cyano-phenoxy)cyclohexyl]-6-[4-[3-[4-[(9S)-4,5,13-trimethyl-9-(oxazol-2-ylmethyl)-3-thia-1,8,11,12-tetrazatricyclo[8.3.0.02,6]trideca-2(6),4,7,10,12-pentaen-7-yl]phenyl]prop-2-ynyl]-1-piperidyl]pyridazine-3-carboxamide] | < 500 | < 500 | < 500 | < 500 | – | – | – | –
25 | Cc1sc2c(c1C)C(c1ccc([C@H]3C[C@@H](C4CC5(CCN(c6ccc(C(=O)N[C@H]7CC[C@H](Oc8ccc(C#N)c(Cl)c8)CC7)nn6)CC5)C4)C3)cc1)=N[C@H](Cc1ncco1)c1nnc(C)n1-2 [I-382] | > 3000 | < 500 | 500 to 1500 | < 500 | – | – | – | –
26 | Cc1sc2c(c1C)C(c1ccc([C@H]3C[C@@H]([C@@H]4CCCN(c5ccc(C(=O)N[C@H]6CC[C@H](Oc7ccc(C#N)c(Cl)c7)CC6)nn5)C4)C3)cc1)=N[C@@H](Cc1ncco1)c1nnc(C)n1-2 [I-374] | > 3000 | > 3000 | > 3000 | > 3000 | – | – | – | –
27 | Cc1sc2c(c1C)C(c1ccc(CN(C)C(=O)CN(C)c3ccc(C(=O)N[C@H]4CC[C@H](Oc5ccc(C#N)c(Cl)c5)CC4)nn3)cc1)=N[C@@H](Cc1ncco1)c1nnc(C)n1-2 [I-299] | > 3000 | 1500 to 3000 | < 500 | 1500 to 3000 | – | – | – | –
